Among the data in PubChem BioAssay AID1919014 (Molecular Pharmacology Branch, DTP, NCI, 2023) are viability, T/C and IC50 values, retold here.

Where “and” joins values, the source holds several entries; their conditions need not be identical. Equal entries are not always repeated. Where only a bound is given, the exact number is not on record here.

The assay relates to NCI-H1341 complex spheroids, percent test/control. Nature of the assay: Anticancer human tumor NCI-H1341 cell line growth inhibition [AhR].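 For all read-outs here: spheroids exposed to agents for seven days before readout.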 The conditions noted are these: for viability, T/C: stronger effect = lower value; for IC50: curve of compound. An excerpt: Multicellular complex tumor spheroid response to aryl hydrocarbon receptor antagonists in combination with a variety of drugs and investigational agents in selected tumor cell lines
The current study was undertaken to assess response to aryl hydrocarbon receptor antagonists in combination with standard-of-care drugs and investigational agents in solid tumor complex spheroid models. Complex spheroids include a stromal component modeled by human endothelial cells (HUVEC) and fibroblasts modeled by human mesenchymal stem cells (MSCs). The concentration ranges selected for each drug and investigational agent were based upon clinically achievable concentrations if the clinical Cmax of the agent was known.
Compounds. The drugs and investigational agents: BAY 2416964 (NSC825713), GNF351 (NSC835774), CH-223191 (NSC835775), CPI-455 (NSC825282), aza-TdCyd (NSC777586), decitabine (NSC127716), belinostat (NSC758774), entinostat (NSC756642), pevonedistat (NSC761192), tazemetostat (NSC777109), talazoparib (NSC765396), olaparib (NSC753686), selinexor (NSC780203), nedisertib (M3814, NSC802822), bortezomib (NSC756655), venetoclax (NSC766270), doxorubicin (NSC123127), elimusertib (BAY189344, NSC800525), ceralasertib (AZD6738, NSC777638), TAK-243 (NSC785004), alisertib (NSC759677), etoposide (NSC141540), topotecan (NSC609699), eribulin (NSC707389), gemcitabine (NSC613327), carboplatin (NSC241240), cisplatin (NSC119875), and SN-38 (NSC673596) were obtained from the National Cancer Institute (NCI) Developmental Therapeutics Program Chemical Repository (32). The FDA-approved anticancer drug set is available from the Developmental Therapeutics Program at https://dtp.cancer.gov/organization/dscb/obtaining/available plates.htm. […] The stock solutions were prepared in dimethyl sulfoxide (DMSO, Sigma-Aldrich, St. Louis, MO, cat. D2650), except for the platinum compounds which were prepared in saline (Quality Biological, Gaithersburg, MD, cat. 114-055-101), at 800-fold the tested concentration and stored at -70 degrees C prior to their use. All drugs and investigational agents were tested over a range starting from a high concentration at or near the clinical Cmax and decreasing in half-log increments. If the clinical Cmax for an agent had not been determined, the highest concentration tested was 10 microM (Table 1).
Cell Culture. All cells were maintained in an incubator at 37 degrees C and 5% CO2 with 95% humidity. The PDC lines were cultured according to standard operating procedures established by the NCI PDMR (https://pdmr.cancer.gov). Briefly, all PDCs were thawed and cultured in Matrigel-coated flasks prepared with a working solution of 1X Ham's F-12 nutrient mix, without supplementation (Invitrogen, Waltham, MA, cat. 11765054), 100 U/mL penicillin-streptomycin (Invitrogen, cat. 15140122), and 2.5% Matrigel (Corning Inc., Corning, NY, cat. 354248) for the first three passages. All PDCs were cultured in complete DMEM/F-12 media containing advanced DMEM/F-12 (Invitrogen, cat. 12634028), 4.9% defined fetal bovine serum, heat inactivated (HyClone Laboratories Inc., Logan, UT, cat. SH30070.03HI), 389 ng/mL hydrocortisone (Sigma-Aldrich, cat. H4001), 9.7 ng/mL human EGF recombinant protein (Invitrogen, cat. PHG0313), 23.4 microg/mL adenine (Sigma-Aldrich, cat. A2786), 97.3 U/mL penicillin-streptomycin (Invitrogen, cat. 15140122), 1.9 mM L-glutamine (Invitrogen, cat. 25030081), and 9.7 microM Y-27632 dihydrochloride (Tocris Bioscience, Bristol, United Kingdom, cat. 1254). The PDCs were cultured in complete DMEM/F12 media without 10 microM Y-27632 dihydrochloride for at least two passages prior to the screen. The established cell lines NCI-H1341 and […] were cultured in DMEM/F-12, HEPES (Invitrogen, cat. 11330032), 5% defined fetal bovine serum (HyClone Laboratories Inc., cat. SH30070.03), ITS premix universal culture supplement [insulin (5 microg/mL), transferrin (5 microg/mL), and selenious acid (5 ng/mL)] […]

As for `CC(C)CC(NC(=O)C(Cc1ccccc1)NC(=O)c1cnccn1)B(O)O` (configuration not stated), the IC50 (as a rule, the concentration that gives 50% inhibition) is 5 nM and 4.6 nM. Moreover, the viability, T/C (in general, the ratio of treated to control) (compound 0.000949 µM) is 97% and 95% and 100%. In addition, the viability, T/C (compound 0.003 µM) was 87.7% and 87% and 79%. In addition, the viability, T/C (compound 0.00949 µM) was 2.76% and 3.47% and 0.86%. For the same molecule, under “compound 0.03 µM”, the viability, T/C was 0.19% and 0.35% and 0.14%. For the setting “compound 0.0949 µM”, the viability, T/C was 0.14% and 0.25% and 0.11%. Further, the viability, T/C (compound 0.3 µM) is 0.17% and 0.31% and 0.15%.

As for `CC1(C)CCC(CN2CCN(c3ccc(C(=O)NS(=O)(=O)c4ccc(NCC5CCOCC5)c([N+](=O)[O-])c4)c(Oc4cnc5[nH]ccc5c4)c3)CC2)=C(c2ccc(Cl)cc2)C1`, the IC50 was > 10000 nM and 2070 nM and 2200 nM. Further, for the setting “compound 0.0316 µM”, the viability, T/C was 113% and 85.5% and 86.1%. Besides, the viability, T/C (compound 0.1 µM) was 97% and 69.1% and 76.1%. Also, the viability, T/C (compound 0.316 µM) was 95.7% and 108% and 96.4%. Further, the viability, T/C (compound 1 µM) is 101% and 68% and 72.1%. Further, the viability, T/C (compound 3.16 µM) was 92.2% and 38.2% and 39.1%. Where the note is “compound 10 µM”, the viability, T/C was 85.7% and 14% and 10.1%.

Turning to `CC1COCCN1c1cc(-c2ccnn2C)c2ccnc(-c3ccn[nH]3)c2n1` (configuration not stated), the IC50 is 43.2 nM and 79.6 nM and 38.3 nM. Besides, for the setting “compound 0.00316 µM”, the viability, T/C was 107% and 90.1% and 110%. Besides, the viability, T/C (compound 0.01 µM) is 115% and 99.5% and 98.4%. Moreover, the viability, T/C (compound 0.0316 µM) is 60.1% and 77.4% and 53.4%. The viability, T/C (compound 0.1 µM) was 28.1% and 43% and 29.3%. Moreover, the viability, T/C (compound 0.316 µM) was 23.1% and 38.5% and 23.2%. In addition, the viability, T/C (compound 1 µM) is 16.5% and 27.6% and 19.2%.

As for `CCN(c1cc(-c2ccc(CN3CCOCC3)cc2)cc(C(=O)NCc2c(C)cc(C)[nH]c2=O)c1C)C1CCOCC1`, the IC50 was more than 3000 nM. Further, the viability, T/C (compound 0.00949 µM) was 94.3% and 103% and 94.7%. In addition, the viability, T/C (compound 0.03 µM) is 84.3% and 90.7% and 97%. Further, under “compound 0.0949 µM”, the viability, T/C is 101% and 87.8% and 83%. In addition, the viability, T/C (compound 0.3 µM) was 85% and 87.6% and 82.2%. The viability, T/C (compound 0.949 µM) is 79.2% and 119% and 90.2%. The viability, T/C (compound 3 µM) is 90.2% and 89.3% and 73.7%.

Regarding `CC[C@@]1(O)C(=O)OCc2c1cc1n(c2=O)Cc2cc3c(CN(C)C)c(O)ccc3nc2-1`, the IC50 was 29.9 nM and 56.8 nM and 71.3 nM. In addition, the viability, T/C (compound 0.000316 µM) was 89.2% and 92.2% and 98.9%. Also, the viability, T/C (compound 0.001 µM) was 94.4% and 86.7% and 107%. Further, the viability, T/C (compound 0.00316 µM) is 89.6% and 91.8% and 112%. Besides, the viability, T/C (compound 0.01 µM) is 80.9% and 79.7% and 87.2%. In addition, the viability, T/C (compound 0.0316 µM) is 48.4% and 65.8% and 57.3%. In addition, where the note is “compound 0.1 µM”, the viability, T/C is 35.3% and 35% and 46.5%.

On to `CCc1c2c(nc3ccc(O)cc13)-c1cc3c(c(=O)n1C2)COC(=O)[C@]3(O)CC`, for which the IC50 is 10.5 nM and 19.6 nM and 12.3 nM. Also, the viability, T/C (compound 0.000949 µM) is 89.8% and 92.6% and 89%. Besides, the viability, T/C (compound 0.003 µM) was 77% and 86.1% and 83.9%. The viability, T/C (compound 0.00949 µM) was 46.3% and 51.3% and 49.4%. Moreover, the viability, T/C (compound 0.03 µM) is 34.4% and 45.9% and 36.6%. The viability, T/C (compound 0.0949 µM) is 27.4% and 34.4% and 28.5%. Moreover, under “compound 0.3 µM”, the viability, T/C is 13.3% and 18.2% and 17%.

In the case of `COc1cc(C2c3cc4c(cc3C(OC3OC5COC(C)OC5C(O)C3O)C3COC(=O)C23)OCO4)cc(OC)c1O` (configuration not stated), the viability, T/C is 98.7% and 93.7% and 88.8% (compound 0.0316 µM); 86.3% and 90.8% and 80.8% (compound 0.1 µM); 75.5% and 77.2% and 57% (compound 0.316 µM); 44.2% and 51.9% and 53.8% (compound 1 µM); 35.1% and 45.4% and 52.8% (compound 3.16 µM); 35.9% and 30.7% and 53.1% (compound 10 µM).

Take `COc1cc(Nc2ncc3c(n2)-c2ccc(Cl)cc2C(c2c(F)cccc2OC)=NC3)ccc1C(=O)O`: the IC50 was less than 31.6 nM. Besides, the viability, T/C (compound 0.0316 µM) was 33% and 48.4% and 43.1%. Further, the viability, T/C (compound 0.1 µM) is 43.8% and 51.7% and 43%. In addition, the viability, T/C (compound 0.316 µM) is 37% and 43.2% and 50.4%. Further, the viability, T/C (compound 1 µM) was 29.6% and 37.5% and 36.1%. Moreover, the viability, T/C (compound 3.16 µM) is 27.7% and 28% and 29.3%. The viability, T/C (compound 10 µM) was 22.2% and 26.8% and 26.4%.

Turning to `COc1cccc2c1C(=O)c1c(O)c3c(c(O)c1C2=O)CC(O)(C(=O)CO)CC3OC1CC(N)C(O)C(C)O1` (configuration not stated), the IC50 is < 31.6 nM and 186 nM and 114 nM. In addition, where the note is “compound 0.0316 µM”, the viability, T/C is 49.4% and 58.5% and 51.1%. Further, where the note is “compound 0.1 µM”, the viability, T/C was 48.7% and 55.5% and 55.7%. Besides, the viability, T/C (compound 0.316 µM) was 35.4% and 44.5% and 30.1%. For the same molecule, the viability, T/C (compound 1 µM) was 13.8% and 18.2% and 6.98%. Moreover, the viability, T/C (compound 3.16 µM) was 0.92% and 1.68% and 0.74%. Further, the viability, T/C (compound 10 µM) is 4.71% and 5.46% and 2.82%.
